# Results taken from PubChem BioAssay (NCI).
# Values joined by “and” are separate entries in the source; they are usually repeats but may differ in a detail not shown here. Equal entries are not always repeated.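 Method: 48-hour compound exposure of cells in 96-well plates, five concentrations, linear interpolation of endpoints. GI50 marks 50% less growth. TGI: total growth inhibition.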 *1 amine or outer side, *2 acyl side, *3 side chain or, on linkers, in order; H or OH if unused. Where a SMILES comes first, the peptide text is derived from it. Bridges are numbered along the chain shown (N, C = ends). Roman numbers before positions name the chains, in order. [ ]: non-standard residue; d: D form. Actinocin(9to1) = Cc1c2oc3c(C)ccc(C(=O)[*:1])c3nc-2c(C(=O)[*:2])c(N)c1=O; NMeT = CN[CH](C(=O)O)[CH](C)O; Sar = CNCC(=O)O
# Experiments:
# Assay in all cases: DTP human tumour cell line panel, 48 h
# OVCAR-8 ovarian = tested on: OVCAR-8 ovarian
# SN12C renal = tested on: SN12C renal
# HCC-2998 colon = tested on: HCC-2998 colon
# SNB-19 CNS = tested on: SNB-19 CNS
# CCRF-CEM leukemia = tested on: CCRF-CEM leukemia
# SK-MEL-5 melanoma = tested on: SK-MEL-5 melanoma
# HOP-92 NSCLC = tested on: HOP-92 NSCLC
# SK-OV-3 ovarian = tested on: SK-OV-3 ovarian
# SW-620 colon = tested on: SW-620 colon
# COLO 205 colon = tested on: COLO 205 colon
SMILES,GI50 (OVCAR-8 ovarian),TGI (OVCAR-8 ovarian),GI50 (SN12C renal),TGI (SN12C renal),GI50 (HCC-2998 colon),TGI (HCC-2998 colon),GI50 (SNB-19 CNS),TGI (SNB-19 CNS),GI50 (CCRF-CEM leukemia),TGI (CCRF-CEM leukemia),GI50 (SK-MEL-5 melanoma),TGI (SK-MEL-5 melanoma),GI50 (HOP-92 NSCLC),TGI (HOP-92 NSCLC),GI50 (SK-OV-3 ovarian),TGI (SK-OV-3 ovarian),GI50 (SW-620 colon),TGI (SW-620 colon),GI50 (COLO 205 colon),TGI (COLO 205 colon)
COc1ccc(/C(COc2ccc3c(=O)c(-c4ccccc4)coc3c2)=N\O)cc1,12.1 µM,64.3 µM,1.65 µM,16.4 µM,3.09 µM,9.15 µM,14.9 µM,> 86.7 µM,3.9 µM,> 100 µM,0.394 µM,4.74 µM,8.83 µM,47 µM,10.1 µM,29.5 µM,2.37 µM,16.9 µM,9.66 µM,> 36.3 µM
C=C(CN1CCN(c2cccc(C(F)(F)F)n2)CC1)c1ccc(C(=O)Nc2ccccc2N)cc1,4.25 µM and 1.09 µM,55.4 µM and > 79 µM,3.79 µM and 0.797 µM,> 100 µM,9.63 µM,> 100 µM,0.65 µM and 0.708 µM,29.3 µM and 23.5 µM,0.278 µM,> 100 µM,0.403 µM and 0.397 µM,,2 µM,43.9 µM,2.55 µM and 0.634 µM,42.4 µM and 21.2 µM,0.528 µM and 0.416 µM,> 100 µM,3.34 µM and 0.907 µM,
O=c1ccs[nH]1,,32.9 µM,,28.3 µM,,8.02 µM,,> 89.1 µM,,17.2 µM,,46.5 µM,,32.2 µM,,72.5 µM,,50.1 µM,,30.9 µM
Cc1cc(O)cc2c1[C@]1(C)CCC3C(C)(C)CCC[C@]3(C)[C@H]1C2 (stereo partly drawn),26.1 µM,54.8 µM,17.2 µM,32.3 µM,22.1 µM,38 µM,20.8 µM,35.7 µM,29.6 µM,92 µM,19.1 µM,33.2 µM,18.4 µM,35.3 µM,21.9 µM,38.6 µM,18.5 µM,33.6 µM,18.8 µM,34 µM
CC(C)C[C@H](NC(=O)Cn1ccc(NCc2ccccc2)cc1=O)B(O)O,4.69 µM,> 100 µM,3.71 µM,54.8 µM,2.21 µM,5.73 µM,4.96 µM,> 100 µM,0.511 µM,> 100 µM,0.678 µM,2.89 µM,2.39 µM,8.35 µM,13.7 µM,> 100 µM,0.557 µM,> 28.6 µM,2.48 µM,> 100 µM
CNC(=S)NC(=O)c1c(Cl)n(C(=O)OC(C)(C)C)c2ccccc12,89.1 µM,> 100 µM,72.8 µM,> 100 µM,27.6 µM,> 100 µM,79.9 µM,> 100 µM,35.4 µM,> 100 µM,28.1 µM,> 100 µM,15.1 µM,85.1 µM,> 100 µM,> 100 µM,79.2 µM,> 100 µM,59.6 µM,> 100 µM
O=C(O)CCCSc1ccccc1,,> 100 µM,,> 100 µM,,> 100 µM,,> 100 µM,,> 100 µM,,> 100 µM,,> 100 µM,,> 100 µM,,> 100 µM,,> 100 µM
NC[C@H]1Nc2ccccc2[C@@H](O)C1O (stereo partly drawn),,> 100 µM,,> 100 µM,,> 100 µM,,> 100 µM,,> 100 µM,,> 100 µM,,> 100 µM,,> 100 µM,,> 100 µM,,> 100 µM
COc1ccccc1C(O)(c1ccccc1)C(O)(c1ccccc1)c1ccccc1OC (stereo not drawn),,> 100 µM,,> 100 µM,,> 100 µM,,> 100 µM,,> 100 µM,,> 100 µM,,> 100 µM,,> 31.6 µM,,> 100 µM,,> 100 µM
CCCN(CCC)c1ccc(/C=C/c2ccc3cc(OCC)ccc3n2)cc1,99.2 µM,> 100 µM,> 100 µM,> 100 µM,> 100 µM,> 100 µM,> 100 µM,> 100 µM,54.3 µM,> 100 µM,23.6 µM,> 100 µM,> 100 µM,> 100 µM,> 100 µM,> 100 µM,> 100 µM,> 100 µM,> 100 µM,> 100 µM
O=C1CC(=O)N(C(=O)c2nn(-c3ccc(Cl)cc3)cc2O)N1,0.636 µM,> 100 µM,0.494 µM,> 100 µM,4.17 µM,> 100 µM,0.5 µM,> 100 µM,0.41 µM,16.7 µM,1.69 µM,12 µM,0.508 µM,> 100 µM,1.85 µM,> 100 µM,2.19 µM,> 100 µM,0.748 µM,3.99 µM
CCN(CC)CCCNC(=O)C1COc2cc(-c3cc(=O)c4ccccc4o3)ccc2O1 (stereo not drawn),,> 100 µM,,> 100 µM,,> 100 µM,,> 100 µM,,> 100 µM,,37.6 µM,,> 100 µM,,> 100 µM,,> 100 µM,,81.4 µM
CC1=C[C@]2(O)C(=O)[C@H](C)C[C@H]3[C@@H](CC[C@@](C)(O)/C=C\2C1=O)C3(C)C,,46.9 µM,,41.5 µM,,> 69.5 µM,,> 100 µM,,> 100 µM,,50.8 µM,,48.2 µM,,98 µM,,35.9 µM,,30.6 µM
C[C@@H](O)[C@H](NC(=O)N[C@@H](CC(N)=O)c1nc([C@@H](N)CO)no1)C(=O)O,> 100 µM,> 100 µM,> 100 µM,> 100 µM,> 100 µM,> 100 µM,> 100 µM,> 100 µM,> 100 µM,> 100 µM,> 100 µM,> 100 µM,> 100 µM,> 100 µM,> 100 µM,> 100 µM,> 100 µM,> 100 µM,> 100 µM,> 100 µM
COC(=O)CC[C@]1(C)O[C@H]2[C@H]([C@@H](C)CCCC(C)=O)OC(=O)[C@@H]2C[C@H]1O,> 100 µM,> 100 µM,> 100 µM,> 100 µM,29.1 µM,> 100 µM,> 100 µM,> 100 µM,> 100 µM,> 100 µM,> 100 µM,> 100 µM,> 100 µM,> 100 µM,> 100 µM,> 100 µM,> 100 µM,> 100 µM,> 100 µM,> 100 µM
"Cc1c2oc3c(C)ccc(C(=O)NC4C(=O)NC(C(C)C)C(=O)N5CCCC5C(=O)N(C)CC(=O)N(C)C(C(C)O)C(=O)OC4C)c3nc-2c(C(=O)NC2C(=O)NC(C(C)C)C(=O)N3CCCC3C(=O)N(C)CC(=O)N(C)C(C(C)O)C(=O)OC2C)c(N)c1=O (stereo not drawn) (I: TVP[Sar][NMeT] / II: TVP[Sar][NMeT]; ester I:1-I:C, II:1-II:C; linker I:N-II:N via Actinocin(9to1); configuration not given here)",,> 43.8 µM,,42.8 µM and > 1 µM,3.64 µM and > 1 µM,> 29.3 µM,2.3 µM and 0.572 µM,> 100 µM,,26.7 µM and > 1 µM,0.473 µM and > 1 µM,2.9 µM and > 1 µM,,> 71.4 µM,5.75 µM and > 1 µM,> 100 µM,,43.4 µM and > 1 µM,2.22 µM and 0.801 µM,> 36.8 µM
CCN(Cc1ccccc1)c1ccc(CO)c(Cl)c1,12.1 µM,> 100 µM,19.8 µM,> 100 µM,8.33 µM,34.5 µM,51.4 µM,> 100 µM,23.3 µM,> 100 µM,5.83 µM,28.7 µM,1.67 µM,15.3 µM,5.78 µM,35.6 µM,1.27 µM,> 100 µM,1.74 µM,4.51 µM
COc1ccc(-c2cc(-c3cccn3C)c(C#N)c(=O)[nH]2)cc1OC,> 100 µM,> 100 µM,> 100 µM,> 100 µM,88.7 µM,> 100 µM,> 100 µM,> 100 µM,5.02 µM,> 100 µM,> 100 µM,> 100 µM,0.0508 µM,9.8 µM,> 100 µM,> 100 µM,> 100 µM,> 100 µM,> 100 µM,> 100 µM
N#CC1=C(N)Oc2c(ccc3ccccc23)C1c1ccccc1 (stereo not drawn),0.0551 µM,16.8 µM,0.0793 µM,13.7 µM,0.141 µM,6.67 µM,0.0579 µM,18.1 µM,0.0437 µM,41.5 µM,0.0346 µM,0.451 µM,0.0413 µM,12.9 µM,0.0796 µM,19 µM,0.0388 µM,18.6 µM,0.19 µM,1.23 µM
CC(=O)CC(N)=O,,> 100 µM,,> 100 µM,,> 100 µM,,> 100 µM,,> 100 µM,,> 100 µM,,> 100 µM,,> 100 µM,,> 100 µM,,> 100 µM
CCC(=O)Nc1ccccc1C#C/C=C\C#Cc1ccccc1SC,12.3 µM,> 100 µM,26.7 µM,> 100 µM,5.09 µM,27.3 µM,43.8 µM,> 100 µM,2.75 µM,23.7 µM,3.91 µM,17.4 µM,3.96 µM,78.7 µM,53.7 µM,> 100 µM,4.62 µM,> 100 µM,9.84 µM,> 100 µM
